The text below walks through data of US20250282776A1, “Bicyclic TLR7 Agonists and Uses Thereof” (Bristol-Myers Squibb Company, priority 2024, published 2025).

One test addresses T1, human TLR7 (hTLR7) (Homo sapiens, UniProt Q9NYK1).
T1 construct: host or cells: HEK-Blue TLR7 cells (engineered human embryonic kidney cells)
T1 sequence (Q9NYK1 27-1049): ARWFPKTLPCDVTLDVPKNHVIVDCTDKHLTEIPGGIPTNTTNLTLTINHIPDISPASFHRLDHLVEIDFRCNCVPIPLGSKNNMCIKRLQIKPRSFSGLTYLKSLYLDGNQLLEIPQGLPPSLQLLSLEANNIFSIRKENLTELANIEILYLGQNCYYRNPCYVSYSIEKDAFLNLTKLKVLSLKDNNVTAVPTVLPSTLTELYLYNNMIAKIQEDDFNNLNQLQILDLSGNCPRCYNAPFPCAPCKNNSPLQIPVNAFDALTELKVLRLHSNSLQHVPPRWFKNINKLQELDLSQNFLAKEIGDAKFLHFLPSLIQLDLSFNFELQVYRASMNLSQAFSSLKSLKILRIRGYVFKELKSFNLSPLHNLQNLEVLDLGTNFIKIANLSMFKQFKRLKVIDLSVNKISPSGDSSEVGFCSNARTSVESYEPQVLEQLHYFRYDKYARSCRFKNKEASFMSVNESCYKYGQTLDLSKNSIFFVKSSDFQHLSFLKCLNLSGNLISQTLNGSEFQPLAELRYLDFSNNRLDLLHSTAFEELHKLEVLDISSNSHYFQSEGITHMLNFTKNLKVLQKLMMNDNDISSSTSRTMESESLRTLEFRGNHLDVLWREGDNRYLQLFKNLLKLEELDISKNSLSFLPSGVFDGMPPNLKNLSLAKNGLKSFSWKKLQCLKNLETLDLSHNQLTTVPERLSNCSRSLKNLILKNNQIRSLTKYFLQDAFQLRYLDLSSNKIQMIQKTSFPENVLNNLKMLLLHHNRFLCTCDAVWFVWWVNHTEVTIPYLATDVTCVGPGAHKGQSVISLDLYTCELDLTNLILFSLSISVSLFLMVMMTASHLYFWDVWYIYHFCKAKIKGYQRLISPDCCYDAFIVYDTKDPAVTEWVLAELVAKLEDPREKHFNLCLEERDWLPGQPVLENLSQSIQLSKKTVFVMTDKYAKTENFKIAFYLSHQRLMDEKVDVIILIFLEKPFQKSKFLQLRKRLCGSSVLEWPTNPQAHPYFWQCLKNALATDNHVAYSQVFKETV
Briefly: Human TLR7 agonist activity assay (HEK-Blue TLR7 SEAP reporter). It is filed as cell-based. The following applies: HEK-Blue TLR7 cells, 18 h incubation, Quanti-Blue, OD 620 nm, some values average of multiple measurements. Put shortly: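 HEK-Blue TLR7 cells seeded 16-18 h, then exposed to compound for 18 h at 37 °C, 5% CO2. Secreted SEAP read with Quanti-Blue at OD 620 nm after 30 min. EC50 taken as concentration giving half-maximal response between baseline and maximum; some values averaged over repeats.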

The target in another test is T2, human TLR8 (hTLR8) (Homo sapiens, UniProt Q9NR97).
T2 construct: expressed in transfected cells
T2 sequence (Q9NR97 27-1041): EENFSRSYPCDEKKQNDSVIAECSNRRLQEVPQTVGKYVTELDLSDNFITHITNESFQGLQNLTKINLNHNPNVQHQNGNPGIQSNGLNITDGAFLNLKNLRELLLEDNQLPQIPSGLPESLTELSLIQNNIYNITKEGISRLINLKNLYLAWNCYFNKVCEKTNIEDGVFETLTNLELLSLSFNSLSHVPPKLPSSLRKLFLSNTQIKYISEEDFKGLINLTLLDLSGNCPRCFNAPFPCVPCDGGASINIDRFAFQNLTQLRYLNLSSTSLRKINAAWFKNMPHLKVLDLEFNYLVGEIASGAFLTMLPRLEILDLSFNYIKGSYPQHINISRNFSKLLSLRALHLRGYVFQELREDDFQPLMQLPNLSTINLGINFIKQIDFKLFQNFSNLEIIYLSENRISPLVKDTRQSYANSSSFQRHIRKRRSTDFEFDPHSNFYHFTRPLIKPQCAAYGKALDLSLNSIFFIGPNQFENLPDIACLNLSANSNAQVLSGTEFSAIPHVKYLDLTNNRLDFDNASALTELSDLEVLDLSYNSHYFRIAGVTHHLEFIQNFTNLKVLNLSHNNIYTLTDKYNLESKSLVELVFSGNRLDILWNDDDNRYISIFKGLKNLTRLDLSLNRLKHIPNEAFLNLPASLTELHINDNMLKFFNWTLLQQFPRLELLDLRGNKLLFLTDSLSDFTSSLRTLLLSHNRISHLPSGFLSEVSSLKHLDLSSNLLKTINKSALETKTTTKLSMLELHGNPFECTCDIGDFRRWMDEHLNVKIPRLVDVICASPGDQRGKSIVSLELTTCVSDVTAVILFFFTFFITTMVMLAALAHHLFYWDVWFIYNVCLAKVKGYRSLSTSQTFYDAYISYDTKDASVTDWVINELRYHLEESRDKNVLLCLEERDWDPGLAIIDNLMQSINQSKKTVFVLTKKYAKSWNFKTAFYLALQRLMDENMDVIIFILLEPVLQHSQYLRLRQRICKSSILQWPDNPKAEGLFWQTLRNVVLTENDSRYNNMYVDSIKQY
Briefly: Human TLR8 agonist activity assay (measured in a similar manner). It is filed as cell-based. The settings on record: HEK-Blue TLR cells, SEAP reporter, measured in a similar manner to TLR7; some values average of multiple measurements. The procedure, abridged: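 Compounds were added to HEK-Blue TLR8 reporter cells, pre-incubated 16-18 h, then treated 18 h at 37° C, 5% CO2. SEAP output was measured with Quanti-Blue (30 min) at OD 620 nm. Some values are averages of multiple measurements.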

For the compound `CCCCN(CCO)c1nc(N)nc2cn(Cc3c(F)cc(C4CCC(N(C)CCOC)CC4)cc3OC)nc12` (centres unmarked) [Compound 199], the EC50 at human TLR7 (hTLR7) amounted to 274 nM; on human TLR8 (hTLR8), 1620 nM.
The like results for `CCCCN(CCOC)c1nc(N)nc2cn(Cc3ccc(CN[C@@H]4CCOC4)cc3OC)nc12` [Compound 71] were, in that order, 621 nM and 1880 nM.
In the case of `CCCCN(CCO)c1nc(N)nc2cn(Cc3ccc(CNC4CCOCC4)c4c3OCCC4)nc12` [Compound 137], the values for the EC50 on human TLR7 (hTLR7) and at human TLR8 (hTLR8) were 1050 nM and 400 nM, respectively.
For `CCCCN(CCO)c1nc(N)nc2cn(Cc3ccc(CNC4CCOC(C)(C)C4)cc3OC)nc12` (single isomer, unassigned) [Compound 112, 2-((5-Amino-2-(4-(((2,2-dimethyltetrahydro-2H-pyran-4-yl)amino)methyl)-2-methoxybenzyl)-2H-pyrazolo[4,3-d]pyrimidin-7-yl)(butyl)amino) ethan-1-ol] the same measures were 585 nM and 562 nM.
For `CCCCN(CCO)c1nc(N)nc2cn(Cc3ccc(CNC4(C)CCOCC4)cc3OC)nc12` [Compound 88, 2-((5-Amino-2-(2-methoxy-4-(((4-methyltetrahydro-2H-pyran-4-yl)amino)methyl)benzyl)-2H-pyrazolo[4,3-d]pyrimidin-7-yl)(butyl)amino)ethan-1-ol] the same measures were 805 nM and 535 nM.
For `CCCCN(CCO)c1nc(N)nc2cn(Cc3c(F)cc(C4=CCC(NCCOC)CC4)cc3OC)nc12` (centres unmarked) [Compound 193] the same measures were 333 nM and 1080 nM.
As for `CCCCN(CCO)c1nc(N)nc2cn(Cc3ccc(CNC(C)(C)COC)cc3OC)nc12` [Compound 33], the EC50 on human TLR7 (hTLR7) is 548 nM; on human TLR8 (hTLR8), 524 nM.
For `CCCCN(CCO)c1nc(N)nc2cn(Cc3cccc4c3OCCN4C(=O)CNC3CCC3)nc12` [Compound 134] the same measures were 2240 nM and 1860 nM.
For `CCCCCNCc1ccc(Cn2cc3nc(N)nc(N(CCO)CCCC)c3n2)c2ncccc12` [Compound 57] the same measures were 2000 nM and 1390 nM.
For `CCCCN(CCO)c1nc(N)nc2cn(Cc3ccc(CN[C@@H]4CCCN(C(C)=O)C4)c4cccnc34)nc12` [Compound 186], the EC50 on human TLR7 (hTLR7) came to 1690 nM; at human TLR8 (hTLR8), 3490 nM.
For `CCCCN(CCO)c1nc(N)nc2cn(Cc3ccc(CN[C@H]4CCOC4)c4c3OCCC4)nc12` [Compound 136, (S)-2-((5-Amino-2-((5-(((tetrahydrofuran-3-yl)amino)methyl)chroman-8-yl)methyl)-2H-pyrazolo[4,3-d]pyrimidin-7-yl)(butyl)amino) ethan-1-ol] the same measures were 861 nM and 360 nM.
The like results for `CCCCN(CCO)c1nc(N)nc2cn(Cc3c(F)cc(C4CCN(CCOC)CC4)cc3C#N)nc12` [Compound 149] were, in that order, 561 nM and 1810 nM.
For `CCCCN(CCO)c1nc(N)nc2cn(Cc3ccc(CN[C@H]4CCOC4)cc3OC)nc12` [Compound 52] the same measures were 1190 nM and 1070 nM.
For `CCCCN(CCO)c1nc(N)nc2cn(Cc3c(F)cc(CNCCOC)cc3F)nc12` [Compound 114], the EC50 at human TLR7 (hTLR7) turned out to be 1060 nM; on human TLR8 (hTLR8), 1830 nM.
For `CCCCN(CCO)c1nc(N)nc2cn(Cc3c(F)cc(CN[C@H]4C[C@H](O)C4)cc3OC)nc12` [Compound 94] the same measures were 1500 nM and 2660 nM.
The like results for `CCCCN(CCO)c1nc(N)nc2cn(Cc3ccc(CN[C@H]4C[C@H](OC)C4)n4ccnc34)nc12` [Compound 188] were, in that order, 781 nM and 1400 nM.
The like results for `CCCCN(CCO)c1nc(N)nc2cn(Cc3ccc(CN4CC5(CC(OC)C5)C4)cc3OC)nc12` [Compound 6] were, in that order, 680 nM and 892 nM.
Take `CCCCN(CCO)c1nc(N)nc2cn(Cc3ccc(CNC(C)(C)C)cc3OC)nc12` [Compound 7]: the EC50 worked out at 969 nM at human TLR7 (hTLR7) and 602 nM at human TLR8 (hTLR8).
For `CCCCN(CCO)c1nc(N)nc2cn(Cc3ccc(CNC4CCC4)c4scnc34)nc12` [Compound 184] the same measures were 401 nM and 310 nM.
The like results for `CCCCN(CCO)c1nc(N)nc2cn(Cc3ccc(CN[C@@H]4CCOC4)n4ncnc34)nc12` [Compound 172] were, in that order, 870 nM and 1350 nM.
For `CCCCN(CCO)c1nc(N)nc2cn(Cc3c(F)cc(N4CCC(N[C@@H]5CCOC5)CC4)cc3F)nc12` [Compound 96] the same measures were 540 nM and 1990 nM.
Turning to `CCCCN(CCO)c1nc(N)nc2cn(Cc3c(F)cc(CNCC(C)(C)C)cc3OC)nc12` [Compound 80], the results for the EC50 at human TLR7 (hTLR7) and on human TLR8 (hTLR8) were 1410 nM and 1620 nM, respectively.
The like results for `CCCCN(CCO)c1nc(N)nc2cn(Cc3ccc(CN[C@H]4CCOC4)cc3C(F)F)nc12` [Compound 99] were, in that order, 1910 nM and 1580 nM.
The like results for `CCCCN(CCO)c1nc(N)nc2cn(Cc3ccc(CNC4CCC4)cc3OC)nc12` [Compound 1] were, in that order, 1290 nM and 1140 nM.
On to `CCCCCN(CCO)c1nc(N)nc2cn(Cc3ccc(CNC4CCC4)cc3OC)nc12` [Compound 44], for which the EC50 at human TLR7 (hTLR7) stood at 825 nM; on human TLR8 (hTLR8), 705 nM.
For `CCCCN(CCO)c1nc(N)nc2cn(Cc3c(F)cc(C4CCN(CC(C)(C)O)CC4)cc3OC)nc12` [Compound 36] the same measures were 144 nM and 525 nM.
For `CCCCN(CCO)c1nc(N)nc2cn(Cc3c(F)cc(CN[C@@H]4CCOC4)cc3OC)nc12` [Compound 75] the same measures were 370 nM and 670 nM.
The like results for `CCCCN(CCO)c1nc(N)nc2cn(Cc3c(F)cc(CN[C@H]4C[C@H](OC)C4)cc3F)nc12` [Compound 119] were, in that order, 136 nM and 1960 nM.
For the compound `CCCCN(CCO)c1nc(N)nc2cn(Cc3ccc(CO)n4ncnc34)nc12` [Compound 177], the EC50 at human TLR7 (hTLR7) amounted to 949 nM; at human TLR8 (hTLR8) it was 1460 nM.
The like results for `CCCCN(CCO)c1nc(N)nc2cn(Cc3ccc(CN[C@@H]4CCOC4)cc3)nc12` [Compound 157] were, in that order, 1160 nM and 460 nM.
The like results for `CCCCN(CCO)c1nc(N)nc2cn(Cc3ccc(CNC4CCC4)c4cccnc34)nc12` [Compound 46, 2-((5-Amino-2-((5-((cyclobutylamino)methyl)quinolin-8-yl)methyl)-2H-pyrazolo[4,3-d]pyrimidin-7-yl)(butyl)amino)ethan-1-ol] were, in that order, 326 nM and 360 nM.
